Reference: PMC5218480 (PLoS ONE, 2017)

Tested on: MV-4-11 cells
Experiment: Gene expression microarray analysis (Affymetrix PrimeView) and GSEA
Format: cell-based, human
Design: RFU PODN (11730768_x_at) / Fold change /veh PODN (11730768_x_at) / RFU LINC00158 (11744669_a_at) / Fold change /veh LINC00158 (11744669_a_at) / RFU DUSP10 (11751237_a_at) / Fold change /veh DUSP10 (11751237_a_at) / RFU ID3 (11757404_x_at) / Fold change /veh ID3 (11757404_x_at) / RFU PLEKHG5 (11737974_s_at) / Fold change /veh PLEKHG5 (11737974_s_at) / RFU LRRC4B (11730491_at) / Fold change /veh LRRC4B (11730491_at) / RFU GIMAP4 (11747438_a_at) / Fold change /veh GIMAP4 (11747438_a_at) / RFU KRT8 (11758183_x_at) / Fold change /veh KRT8 (11758183_x_at) / RFU CNN1 (11734310_a_at) / Fold change /veh CNN1 (11734310_a_at) / RFU VPS37D (11726825_at) / Fold change /veh VPS37D (11726825_at) / RFU C10orf10 (11716522_x_at) / Fold change /veh C10orf10 (11716522_x_at) / RFU KIR2DL2 /// KIR2DL4 /// KIR2DL5A /// KIR2DL5B /// KIR2DS1 /// KIR2DS2 /// KIR2DS3 /// KIR2DS4 /// KIR3DL3 /// KIR3DL3 /// KIR3DS1 (11738374_at) / Fold change /veh KIR2DL2 /// KIR2DL4 /// KIR2DL5A /// KIR2DL5B /// KIR2DS1 /// KIR2DS2 /// KIR2DS3 /// KIR2DS4 /// KIR3DL3 /// KIR3DL3 /// KIR3DS1 (11738374_at) / RFU C1QL1 (11718748_at) / Fold change /veh C1QL1 (11718748_at) / RFU TMPRSS4 (11747572_a_at) / Fold change /veh TMPRSS4 (11747572_a_at) / RFU HAMP (11756126_x_at) / Fold change /veh HAMP (11756126_x_at) / RFU RNFT2 (11725882_a_at) / Fold change /veh RNFT2 (11725882_a_at) / RFU NR4A2 (11747474_a_at) / Fold change /veh NR4A2 (11747474_a_at) / RFU ABCC12 (11746883_a_at) / Fold change /veh ABCC12 (11746883_a_at) / RFU TMEM136 (11760407_x_at) / Fold change /veh TMEM136 (11760407_x_at) / RFU CLDN22 /// WWC2 (11732394_at) / Fold change /veh CLDN22 /// WWC2 (11732394_at) / RFU HLA-DPB1 (11760878_x_at) / Fold change /veh HLA-DPB1 (11760878_x_at) / RFU SPINT1 (11716480_a_at) / Fold change /veh SPINT1 (11716480_a_at) / RFU GAP43 (11754022_s_at) / Fold change /veh GAP43 (11754022_s_at) / RFU A4GNT (11735810_at) / Fold change /veh A4GNT (11735810_at) / RFU PRB3 (11715151_x_at) / Fold change /veh PRB3 (11715151_x_at) / RFU TUBB4B (11761932_at) / Fold change /veh TUBB4B (11761932_at) / RFU CAPN14 (11732068_a_at) / Fold change /veh CAPN14 (11732068_a_at) / RFU TMCC2 (11721928_a_at) / Fold change /veh TMCC2 (11721928_a_at) / RFU IRGQ (11745062_a_at) / Fold change /veh IRGQ (11745062_a_at) / RFU FAM174B (11720279_a_at) / Fold change /veh FAM174B (11720279_a_at) / RFU TMPRSS4 (11748680_a_at) / Fold change /veh TMPRSS4 (11748680_a_at) / RFU FAM212B (11763350_a_at) / Fold change /veh FAM212B (11763350_a_at) / RFU PLEKHG5 (11743358_a_at) / Fold change /veh PLEKHG5 (11743358_a_at) / RFU ZSCAN30 (11745921_a_at) / Fold change /veh ZSCAN30 (11745921_a_at) / RFU CMKLR1 (11741424_a_at) / Fold change /veh CMKLR1 (11741424_a_at) / RFU LOC101060620 /// MAPK8IP1 (11723275_at) / Fold change /veh LOC101060620 /// MAPK8IP1 (11723275_at) / RFU SPTSSB (11747773_x_at) / Fold change /veh SPTSSB (11747773_x_at) / RFU PRSS12 (11739890_at) / Fold change /veh PRSS12 (11739890_at) / RFU BIN1 (11741810_x_at) / Fold change /veh BIN1 (11741810_x_at) / RFU WNT11 (11732464_a_at) / Fold change /veh WNT11 (11732464_a_at) / RFU C10orf10 (11716521_a_at) / Fold change /veh C10orf10 (11716521_a_at) / RFU C5orf56 (11738089_at) / Fold change /veh C5orf56 (11738089_at) / RFU CYB561 (11721691_x_at) / Fold change /veh CYB561 (11721691_x_at) / RFU ANKRD19P (11752326_a_at) / Fold change /veh ANKRD19P (11752326_a_at) / RFU OR2T12 /// OR2T33 /// OR2T8 (11738714_s_at) / Fold change /veh OR2T12 /// OR2T33 /// OR2T8 (11738714_s_at) / RFU VCAN (11748164_a_at) / Fold change /veh VCAN (11748164_a_at) / RFU JSRP1 (11732532_at) / Fold change /veh JSRP1 (11732532_at) / RFU KRTAP10-11 (11738290_x_at) / Fold change /veh KRTAP10-11 (11738290_x_at) / RFU MYO3A (11730013_a_at) / Fold change /veh MYO3A (11730013_a_at) / RFU EBF3 (11725865_a_at) / Fold change /veh EBF3 (11725865_a_at) / RFU CAMK2N1 (11719241_x_at) / Fold change /veh CAMK2N1 (11719241_x_at) / RFU C5orf56 (11738088_a_at) / Fold change /veh C5orf56 (11738088_a_at) / RFU OLFML3 (11715873_a_at) / Fold change /veh OLFML3 (11715873_a_at) / RFU LOC100653217 /// NTM (11731650_a_at) / Fold change /veh LOC100653217 /// NTM (11731650_a_at) / RFU MAPK11 (11762145_a_at) / Fold change /veh MAPK11 (11762145_a_at) / RFU FIZ1 (11724087_x_at) / Fold change /veh FIZ1 (11724087_x_at) / RFU OASL (11726364_x_at) / Fold change /veh OASL (11726364_x_at) / RFU SOX15 (11748057_x_at) / Fold change /veh SOX15 (11748057_x_at) / RFU CD79A (11719716_a_at) / Fold change /veh CD79A (11719716_a_at) / RFU HIST1H1D (11736915_at) / Fold change /veh HIST1H1D (11736915_at) / RFU CASKIN2 (11723855_a_at) / Fold change /veh CASKIN2 (11723855_a_at) / RFU LOC730098 (11760151_x_at) / Fold change /veh LOC730098 (11760151_x_at) / RFU OR4N2 (11742367_at) / Fold change /veh OR4N2 (11742367_at) / RFU PRRT2 (11749266_a_at) / Fold change /veh PRRT2 (11749266_a_at) / RFU SNX32 (11753110_a_at) / Fold change /veh SNX32 (11753110_a_at) / RFU CDHR5 (11726645_a_at) / Fold change /veh CDHR5 (11726645_a_at) / RFU RCAN1 (11760418_a_at) / Fold change /veh RCAN1 (11760418_a_at) / RFU FAM167A (11723789_a_at) / Fold change /veh FAM167A (11723789_a_at) / RFU FAM26E (11764081_at) / Fold change /veh FAM26E (11764081_at) / RFU ISYNA1 (11749810_s_at) / Fold change /veh ISYNA1 (11749810_s_at) / RFU ACY1 (11761880_at) / Fold change /veh ACY1 (11761880_at) / RFU 11764098_at / Fold change /veh 11764098_at / RFU SAMD14 (11745864_x_at) / Fold change /veh SAMD14 (11745864_x_at) / RFU NPB (11741838_a_at) / Fold change /veh NPB (11741838_a_at) / RFU TMPRSS6 (11731388_a_at) / Fold change /veh TMPRSS6 (11731388_a_at) / RFU KRTAP10-2 (11738614_at) / Fold change /veh KRTAP10-2 (11738614_at) / RFU ARHGAP8 /// PRR5-ARHGAP8 (11727945_x_at) / Fold change /veh ARHGAP8 /// PRR5-ARHGAP8 (11727945_x_at) / RFU KRTAP5-7 /// NADSYN1 (11734609_at) / Fold change /veh KRTAP5-7 /// NADSYN1 (11734609_at) / RFU RASL12 (11751679_a_at) / Fold change /veh RASL12 (11751679_a_at) / RFU CDKN2B (11736163_a_at) / Fold change /veh CDKN2B (11736163_a_at) / RFU PRF1 (11729649_at) / Fold change /veh PRF1 (11729649_at) / RFU, ZNF638 /// ZNF638-IT1 / Fold change vs veh, ZNF638 /// ZNF638-IT1 / RFU, PANK3 / Fold change vs veh, PANK3 / RFU, SH3YL1 / Fold change vs veh, SH3YL1 / RFU, ZEB2 / Fold change vs veh, ZEB2 / RFU, NRIP1 / Fold change vs veh, NRIP1 / RFU, PTTG1IP / Fold change vs veh, PTTG1IP / RFU, CAPN2 / Fold change vs veh, CAPN2 / RFU, MED14 / Fold change vs veh, MED14 / RFU, SNORA58 / Fold change vs veh, SNORA58 / RFU, C1orf63 / Fold change vs veh, C1orf63 / RFU, LRRFIP1 / Fold change vs veh, LRRFIP1 / RFU, NDUFAF7 / Fold change vs veh, NDUFAF7 / RFU, SLC12A2 / Fold change vs veh, SLC12A2 / RFU, IBTK / Fold change vs veh, IBTK / RFU, ESF1 / Fold change vs veh, ESF1 / Fold change vs veh, TMEM50B / RFU, TAOK1 / Fold change vs veh, TAOK1 / RFU, ACBD3 / Fold change vs veh, ACBD3 / RFU, TMA16 / Fold change vs veh, TMA16 / RFU, RWDD3 / Fold change vs veh, RWDD3 / RFU, BCAT1 / Fold change vs veh, BCAT1 / RFU, EDEM3 / Fold change vs veh, EDEM3 / RFU, TMEM33 / Fold change vs veh, TMEM33 / RFU, WDR75 / Fold change vs veh, WDR75 / RFU, AHCTF1 / Fold change vs veh, AHCTF1 / RFU, TFRC / Fold change vs veh, TFRC / RFU, ZDHHC17 / Fold change vs veh, ZDHHC17 / RFU, NOM1 / Fold change vs veh, NOM1 / RFU, ARL8B / Fold change vs veh, ARL8B / RFU, ZBTB11 / Fold change vs veh, ZBTB11 / RFU, TAMM41 / Fold change vs veh, TAMM41 / RFU, KIAA1704 /// LOC100996395 / Fold change vs veh, KIAA1704 /// LOC100996395 / RFU, ING1 / Fold change vs veh, ING1 / RFU, TRMT61B / Fold change vs veh, TRMT61B / RFU, FUBP3 / Fold change vs veh, FUBP3 / RFU, TP53 / Fold change vs veh, TP53 / RFU, TNKS2 / Fold change vs veh, TNKS2 / RFU, ZFP14 / Fold change vs veh, ZFP14 / RFU, ACTR2 / Fold change vs veh, ACTR2 / RFU, PPP3R1 / Fold change vs veh, PPP3R1 / RFU, PIK3R1 / Fold change vs veh, PIK3R1 / RFU, HNRNPA1 / Fold change vs veh, HNRNPA1 / RFU, RNF170 / Fold change vs veh, RNF170 / RFU, ZNF28 / Fold change vs veh, ZNF28 / RFU, RNGTT / Fold change vs veh, RNGTT / RFU, OGT / Fold change vs veh, OGT / RFU, BRD1 / Fold change vs veh, BRD1 / RFU, MARS / Fold change vs veh, MARS / RFU, ZNF655 / Fold change vs veh, ZNF655 / RFU, FAHD1 / Fold change vs veh, FAHD1 / RFU, BDP1 / Fold change vs veh, BDP1 / RFU, LRRCC1 / Fold change vs veh, LRRCC1 / RFU, ARID1A / Fold change vs veh, ARID1A / RFU, ZNF146 / Fold change vs veh, ZNF146 / RFU, ZNF330 / Fold change vs veh, ZNF330 / RFU, GPN3 / Fold change vs veh, GPN3 / RFU, C9orf123 / Fold change vs veh, C9orf123 / RFU, N4BP2L2 / Fold change vs veh, N4BP2L2 / RFU, ARFIP1 / Fold change vs veh, ARFIP1 / RFU, FAM179B / Fold change vs veh, FAM179B / RFU, BCL10 / Fold change vs veh, BCL10 / RFU, UHRF1BP1L / Fold change vs veh, UHRF1BP1L / RFU, BET1 / Fold change vs veh, BET1 / RFU, CNOT2 / Fold change vs veh, CNOT2 / RFU, ZNF268 / Fold change vs veh, ZNF268 / Fold change vs veh, ZNF507 / RFU, DGCR2 / Fold change vs veh, DGCR2 / RFU, WDSUB1 / Fold change vs veh, WDSUB1 / Fold change vs veh, HSP90B1 /// MIR3652 / RFU, ADSS / Fold change vs veh, ADSS / RFU, GK / Fold change vs veh, GK / RFU, ZNF148 / Fold change vs veh, ZNF148 / RFU, TAF9 / Fold change vs veh, TAF9 / RFU, SLC1A5 / Fold change vs veh, SLC1A5 / RFU, SLMO2 / Fold change vs veh, SLMO2 / RFU, ABCC4 / Fold change vs veh, ABCC4 / RFU, LOC101060439 /// RAP1B / Fold change vs veh, LOC101060439 /// RAP1B / RFU, RFX7 / Fold change vs veh, RFX7 / RFU, GTPBP10 / Fold change vs veh, GTPBP10 / RFU, CNEP1R1 / Fold change vs veh, CNEP1R1 / RFU, BIVM-ERCC5 /// ERCC5 / Fold change vs veh, BIVM-ERCC5 /// ERCC5 / RFU, ILF3 / Fold change vs veh, ILF3 / RFU 11762660_at / Fold change /veh 11762660_at / RFU VCAN (11757783_s_at) / Fold change /veh VCAN (11757783_s_at) / RFU DDX43 (11728927_at) / Fold change /veh DDX43 (11728927_at) / RFU KRT8 (11758188_x_at) / Fold change /veh KRT8 (11758188_x_at) / RFU NKD1 (11759106_at) / Fold change /veh NKD1 (11759106_at) / RFU SRD5A1 (11742802_a_at) / Fold change /veh SRD5A1 (11742802_a_at) / RFU TPSAB1 /// TPSB2 (11721975_s_at) / Fold change /veh TPSAB1 /// TPSB2 (11721975_s_at) / RFU GSTM3 (11746129_a_at) / Fold change /veh GSTM3 (11746129_a_at) / RFU IL23R (11737362_x_at) / Fold change /veh IL23R (11737362_x_at) / RFU TMEM51 (11727254_a_at) / Fold change /veh TMEM51 (11727254_a_at) / RFU PIWIL2 (11732686_x_at) / Fold change /veh PIWIL2 (11732686_x_at) / RFU ORM1 (11744905_x_at) / Fold change /veh ORM1 (11744905_x_at) / RFU CCDC152 (11743942_at) / Fold change /veh CCDC152 (11743942_at) / RFU ECM1 (11717891_a_at) / Fold change /veh ECM1 (11717891_a_at) / RFU IL23R (11748794_a_at) / Fold change /veh IL23R (11748794_a_at) / RFU TNFAIP8L3 (11732012_x_at) / Fold change /veh TNFAIP8L3 (11732012_x_at) / RFU MBOAT4 (11741988_at) / Fold change /veh MBOAT4 (11741988_at) / RFU 11764193_at / Fold change /veh 11764193_at / RFU TMEM53 (11763286_at) / Fold change /veh TMEM53 (11763286_at) / RFU MAGEB2 (11727129_at) / Fold change /veh MAGEB2 (11727129_at) / RFU TMEM200A (11744735_a_at) / Fold change /veh TMEM200A (11744735_a_at) / RFU CCDC152 (11751479_a_at) / Fold change /veh CCDC152 (11751479_a_at) / RFU FAM211A (11726209_a_at) / Fold change /veh FAM211A (11726209_a_at) / RFU RGS16 (11746705_a_at) / Fold change /veh RGS16 (11746705_a_at) / RFU VCAN (11755009_s_at) / Fold change /veh VCAN (11755009_s_at) / RFU RHOB (11743442_s_at) / Fold change /veh RHOB (11743442_s_at) / RFU RGS16 (11720943_a_at) / Fold change /veh RGS16 (11720943_a_at) / RFU RGS16 (11720944_at) / Fold change /veh RGS16 (11720944_at) / RFU, VPS4B / Fold change vs veh, VPS4B / RFU, CREB1 / Fold change vs veh, CREB1 / RFU, DNAJC13 / Fold change vs veh, DNAJC13 / RFU, GNAQ / Fold change vs veh, GNAQ / RFU, CDK5R1 / Fold change vs veh, CDK5R1 / RFU, ZRANB3 / Fold change vs veh, ZRANB3 / RFU, CUL4A / Fold change vs veh, CUL4A / RFU, CCNY / Fold change vs veh, CCNY / RFU, UFL1 / Fold change vs veh, UFL1 / RFU, COG3 / Fold change vs veh, COG3 / RFU, DIAPH2 / Fold change vs veh, DIAPH2 / RFU, SKA2 / Fold change vs veh, SKA2 / RFU, AFF3 / Fold change vs veh, AFF3 / RFU, LMF1 / Fold change vs veh, LMF1 / RFU, IPO11 / Fold change vs veh, IPO11 / RFU, DFFB / Fold change vs veh, DFFB / RFU, FOXP1 / Fold change vs veh, FOXP1 / RFU, CARD8 / Fold change vs veh, CARD8 / RFU, STRN3 / Fold change vs veh, STRN3 / RFU, ADK / Fold change vs veh, ADK / RFU, RASSF2 / Fold change vs veh, RASSF2 / RFU, WIPF1 / Fold change vs veh, WIPF1 / RFU, LARP1B / Fold change vs veh, LARP1B / RFU, RASA1 / Fold change vs veh, RASA1 / RFU, RB1 / Fold change vs veh, RB1 / RFU, PPFIA1 / Fold change vs veh, PPFIA1 / RFU, MAT2A / Fold change vs veh, MAT2A / RFU, CCT5 / Fold change vs veh, CCT5 / RFU, WDR92 / Fold change vs veh, WDR92 / RFU, CUX1 / Fold change vs veh, CUX1 / RFU, TTC7A / Fold change vs veh, TTC7A / RFU, TMEM135 / Fold change vs veh, TMEM135 / RFU, DEPTOR / Fold change vs veh, DEPTOR / RFU, CPM / Fold change vs veh, CPM / RFU, DNAJB6 / Fold change vs veh, DNAJB6 / RFU, CACNA2D3 / Fold change vs veh, CACNA2D3 / RFU, DTX4 / Fold change vs veh, DTX4 / RFU, TFCP2 / Fold change vs veh, TFCP2 / RFU, GMCL1 /// GMCL1P1 / Fold change vs veh, GMCL1 /// GMCL1P1 / RFU, AEBP2 / Fold change vs veh, AEBP2 / RFU, SNHG1 /// SNORD22 /// SNORD25 /// SNORD26 /// SNORD27 /// SNORD28 /// SNORD29 /// SNORD31 / Fold change vs veh, SNHG1 /// SNORD22 /// SNORD25 /// SNORD26 /// SNORD27 /// SNORD28 /// SNORD29 /// SNORD31 / Fold change (Aza/veh), C12orf56 (ProbeSet 11735607_a_at) / Fold change (ACY-1035/veh), C12orf56 (ProbeSet 11735607_a_at) / Fold change (Aza/veh), FGFR1OP (ProbeSet 11751329_s_at) / Fold change (ACY-1035/veh), FGFR1OP (ProbeSet 11751329_s_at) / Fold change (Aza/veh), VPS36 (ProbeSet 11739960_a_at) / Fold change (ACY-1035/veh), VPS36 (ProbeSet 11739960_a_at) / RFU SYPL1 (11715823_x_at) / Fold change /veh SYPL1 (11715823_x_at) / RFU IGFBP7 (11715501_s_at) / Fold change /veh IGFBP7 (11715501_s_at) / RFU REEP3 (11722064_at) / Fold change /veh REEP3 (11722064_at) / RFU IGLL1 (11728026_x_at) / Fold change /veh IGLL1 (11728026_x_at): dose or concentration left out as unconfirmed
Settings: ProbeSet 11749781_s_at; LIST B

Nc1ncn([C@@H]2O[C@H](CO)[C@@H](O)[C@H]2O)c(=O)n1 [azacitidine]
Fold change vs veh, BCAT1: 0.85
